From patent US10653688B2, “6-(6-membered heteroaryl and aryl)isoquinolin-3-yl carboxamides and preparation and use thereof” (Samumed, LLC, priority 2017, dated 2020)
Read-outs that look alike come from different tables or passages of the source.

Legend:
[1] = tested on: Wnt activity (SW480 colon carcinoma cells stably expressing the Sp5-Luc reporter gene); test: Wnt activity screening assay (Sp5-Luc reporter gene assay); assay type: cell-based, human; conditions: Homo sapiens, 36 to 48 hours
From the text: The screening assay for Wnt activity is described as follows. Reporter cell lines can be generated by stably transducing cancer cell lines (e.g., colon cancer) or primary cells (e.g., IEC-6 intestinal cells) with a lentiviral construct that includes a Wnt-responsive promoter driving expression of the firefly luciferase gene.
SW480 colon carcinoma cells were transduced with a lentiviral vector expressing luciferase with a human Sp5 promoter consisting of a sequence of eight TCF/LEF binding sites. SW480 cells stably expressing the Sp5-Luc reporter gene and a hygromycin resistance gene were selected by treatment with 150 μg/mL of hygromycin for 7 days. These stably transduced SW480 cells were expanded in cell culture and used for all further screening activities. […] For Sp5-Luc reporter gene assays, the cells were plated at 4,000 cells/well in 384-well plates with a DMEM medium containing 1% fetal bovine serum, and 1% Penicillin-Streptomycin and incubated for 36 to 48 hours at 37° C. and 5% CO2. Following incubation, 15 μl of BriteLite Plus luminescence reagent (Perkin Elmer) was added to each well of the 384-well assay plates. The plates were placed on an orbital shaker for 2 min and then luminescence was quantified using the Envision (Perkin Elmer) plate reader. Readings were normalized to DMSO only treated cells, and normalized activities were utilized for EC50 calculations using the dose-response log (inhibitor) vs. response-variable slope (four parameters) nonlinear regression feature available in GraphPad Prism 5.0 (or Dotmatics).

recombinant GSK3β kinase = recombinant GSK3β kinase (Homo sapiens (Human), UniProt P49841); test: GSK3β kinase assay (Ser/Thr 09 peptide Z-lyte, FRET); assay type: biochemical;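 note: FRET read-out as coumarin over fluorescein emission ratio, compounds incubated one hour at room temperature, IC50 from dose-response curve fit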
Experimental: Each compound is dissolved in DMSO as a 10 mM stock and used to prepare compound source plates. Serial dilution (1:3, 11-point dose-response curves from 10 M to 0.0003 M) and compound transfer was performed using the ECHO 550 (Labcyte, Sunnyvale, Calif.) into 1536-well black-walled round bottom plates (Corning).
This is a non-radioactive assay using fluorescence resonance energy transfer (FRET) between coumarin and fluorescein to detect kinase activity which is represented as ratio of coumarin emission/fluorescein emission.
The mixture is allowed to incubate with the representative compounds for one hour at room temperature. All reactions were performed in duplicate. Unphosphorylated (“0% Control”) and phosphorylated (“100% control”) forms of Ser/Thr 18 serve as control reactions.
After incubation, diluted Development Buffer is added to the reaction and allowed to further incubate for one hour at room temperature.
Dose-response curves are generated and inhibitory concentration (IC50) values are calculated using non-linear regression curve fit in the Dotmatics' Studies Software (Bishops Stortford, UK).

[2] = tested on: SW480 colon carcinoma cells; test: Cell viability assay (CellTiter-Glo); assay type: cell-based, human; conditions: Homo sapiens, 96 h, four days, CellTiter-Glo
Experimental: SW480 colon carcinoma cells were transduced with a lentiviral vector expressing luciferase with a human Sp5 promoter consisting of a sequence of eight TCF/LEF binding sites. SW480 cells stably expressing the Sp5-Luc reporter gene and a hygromycin resistance gene were selected by treatment with 150 μg/mL of hygromycin for 7 days. These stably transduced SW480 cells were expanded in cell culture and used for all further screening activities.
For the Cell Viability Assays, the cells were plated at 2,000 cells/well in 384-well plates with a DMEM medium containing 1% fetal bovine serum, and 1% Penicillin-Streptomycin and incubated for […] at 37° C. and 5% CO2. Eight replicates of DMSO-treated cells served as controls and cells treated with compound were performed in duplicate.
After incubation, 10 μL of CellTiter-Glo (Promega) was added to each well allowed to incubate for approximately 12 minutes. This reagent “results in cell lysis and generation of a luminescent signal proportional to the amount of ATP present. The amount of ATP is directly proportional to the number of cells present in culture, in agreement with previous reports. The CellTiter-Glo Assay generates a “glow-type” luminescent signal, produced by the luciferase reaction (Promega.com)”.

[3] = tested on: LL29 cells (primary human fibroblasts derived from IPF patients), α-smooth muscle actin; test: Inhibition of fibrotic process: TGF-β1-treated primary human fibroblasts, αSMA staining; assay type: cell-based; conditions: Homo sapiens, Fibroblast; for EC50: 96 h, TGF-β1 20 ng/mL, 4 days, % cells positive for αSMA;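 for all read-outs here: controls were TGF-β1-stimulated wells with DMSO vehicle as the positive reference and cells given DMSO alone as the negative reference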
[4] = tested on: IL-6 in human peripheral blood mononuclear cells (huPBMCs); test: IL-6 inhibition in LPS-stimulated human peripheral blood mononuclear cells (HTRF); assay type: cell-based; conditions: Homo sapiens, PBMC; for EC50: LPS 50 ng/mL, 22 hours, IL-6 HTRF
Experimental: Human Peripheral Blood Mononuclear Cells:
Fresh Normal PB MNC (Catalog # PB001, AllCells, Alameda, Calif.) were shipped overnight at 4° C. and resuspended in Roswell Park Memorial Institute (RPMI) 1640 Medium, with GlutaMAX Supplement (Catalog #61870127, ThermoFisher Scientific, Waltham, Mass.) supplemented with 1% Penicillin-Streptomycin (Catalog #15140163, ThermoFisher Scientific, Waltham, Mass.) and 1% fetal bovine serum (FBS) (Catalog #16140089, ThermoFisher Scientific, Waltham, Mass.) assay media.
Fresh normal human peripheral blood mononuclear cells (huPBMCs) were resuspended in 1% FBS-RPMI assay media with 1% Penicillin-Streptomycin 1% to a cell concentration of 1×10e6 cells/mL. […] 50 ng/mL of Lipopolysaccharides from Escherichia coli 0111:B4 (Catalog # L5293-2ML, Sigma-Aldrich, St. Louis, Mo.) was added after 2 hours and cells were incubated for another 22 hours at 37° C.-5% CO2. After 22 hour incubation, a mixture of anti-IL6 XL665 and anti-IL-6 Cryptate diluted in reconstitution buffer (Catalog #62IL6PEC, Cisbio Inc., Bedford, Mass.) was added to each well. Following incubation for 3 hours at room temperature, Homogeneous Time-Resolved Fluorescence (HTRF) was measured using the Envision (Perkin Elmer, Shelton, Conn.) at 665 nm and […]. The ratio of fluorescence at 665 nm to 620 nm was used as a readout for IL-6 quantification. All samples were processed in duplicate. Readings were normalized to DMSO treated cells and normalized activities were utilized for EC50 calculations. EC50 was determined using software generated by Dotmatics Limited (Windhill Bishops Stortford Herts, UK) using the Levenberg-Marquardt 4 parameter fitting procedure with finite different gradients.

[5] = molecular target: recombinant DYRK1A kinase (Homo sapiens (Human), UniProt Q13627); test: DYRK1A kinase assay (Ser/Thr 18 peptide Z-lyte, FRET)
[6] = GSK3β kinase, head says EC50, method says IC50, ATP 46 μM
[7] = DYRK1A kinase, head says EC50, method says IC50, ATP 30 μM

Sequence of recombinant GSK3β kinase (P49841 whole entry): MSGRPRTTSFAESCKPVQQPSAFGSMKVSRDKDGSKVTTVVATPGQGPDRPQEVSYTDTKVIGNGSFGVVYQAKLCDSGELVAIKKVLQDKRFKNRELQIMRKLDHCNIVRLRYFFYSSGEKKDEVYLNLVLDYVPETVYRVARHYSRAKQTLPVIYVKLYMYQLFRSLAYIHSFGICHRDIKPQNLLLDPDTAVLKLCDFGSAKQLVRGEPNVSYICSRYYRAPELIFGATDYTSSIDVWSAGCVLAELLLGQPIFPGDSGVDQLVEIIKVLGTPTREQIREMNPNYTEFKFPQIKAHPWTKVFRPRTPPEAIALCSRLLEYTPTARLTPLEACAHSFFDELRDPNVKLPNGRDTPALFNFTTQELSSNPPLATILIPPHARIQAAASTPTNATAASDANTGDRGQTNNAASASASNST

SMILES	EC50 [1]	EC50 (recombinant GSK3β kinase; [6])	EC50 [2]	EC50 [3]	inhibition at 10 µM ([3]; read-out: percent inhibition at 10 μM (given for EC50 >10 μM), TGF-β1, αSMA, 10 μM)	EC50 [4]	inhibition at 10 µM ([4]; read-out: percent inhibition at 10 μM (given for EC50 >10 μM), LPS, IL-6, 10 μM)	EC50 [5, 7]	EC50 (recombinant GSK3β kinase)	EC50 [5]
CN1CCN(c2cc(C(=O)Nc3cc4cc(-c5cnccn5)ccc4cn3)ccn2)CC1 [Compound 84, 2-(4-Methylpiperazin-1-yl)-N-(6-(pyrazin-2-yl)isoquinolin-3-yl)isonicotinamide]	5830 nM	> 10 µM	8380 nM	> 10000 nM	35.4%	> 10000 nM	5.7%	96 nM	–	–
CNc1cncc(-c2ccc3cnc(NC(=O)c4ccnc(N5CCN(C)CC5)c4)cc3c2)n1 [Compound 85, N-(6-(6-(Methylamino)pyrazin-2-yl)isoquinolin-3-yl)-2-(4-methylpiperazin-1-yl)isonicotinamide]	757 nM	> 10 µM	2460 nM	1850 nM	–	6710 nM	–	2 nM	–	–
CC(C)Nc1cncc(-c2ccc3cnc(NC(=O)C4CNC4)cc3c2)n1 [Compound 86, N-(6-(6-(Isopropylamino)pyrazin-2-yl)isoquinolin-3-yl)azetidine-3-carboxamide]	1620 nM	–	3420 nM	204 nM	–	1130 nM	–	–	0.017 µM	1 nM
CC(C)Nc1cncc(-c2ccc3cnc(NC(=O)C4CCNCC4)cc3c2)n1 [Compound 87, N-(6-(6-(Isopropylamino)pyrazin-2-yl)isoquinolin-3-yl)piperidine-4-carboxamide]	201 nM	0.038 µM	758 nM	1920 nM	–	377 nM	–	1 nM	–	–
CC(C)Nc1cncc(-c2ccc3cnc(NC(=O)C4CCN(C(C)C)CC4)cc3c2)n1 [Compound 90, 1-isopropyl-N-(6-(6-(isopropylamino)pyrazin-2-yl)isoquinolin-3-yl)piperidine-4-carboxamide]	139 nM	0.01 µM	465 nM	37 nM	–	463 nM	–	1 nM	–	–
CC(C)Nc1cncc(-c2ccc3cnc(NC(=O)c4cccc(C5CCNCC5)c4)cc3c2)n1 [Compound 92, N-(6-(6-(Isopropylamino)pyrazin-2-yl)isoquinolin-3-yl)-3-(piperidin-4-yl) benzamide]	142 nM	3.37 µM	235 nM	3220 nM	–	374 nM	–	9 nM	–	–
CC(C)Nc1cncc(-c2ccc3cnc(NC(=O)c4cccc(C5CCN(C)CC5)c4)cc3c2)n1 [Compound 93, N-(6-(6-(Isopropylamino)pyrazin-2-yl)isoquinolin-3-yl)-3-(1-methylpiperidin-4-yl)benzamide]	132 nM	6.55 µM	171 nM	2240 nM	–	811 nM	–	1 nM	–	–
CC(C)Nc1cncc(-c2ccc3cnc(NC(=O)c4cn(C5CCNCC5)nn4)cc3c2)n1 [Compound 94, N-(6-(6-(isopropylamino)pyrazin-2-yl)isoquinolin-3-yl)-1-(piperidin-4-yl)-1H-1,2,3-triazole-4-carboxamide]	24 nM	2.67 µM	46 nM	103 nM	–	137 nM	–	2 nM	–	–
CC(C)Nc1cncc(-c2ccc3cnc(NC(=O)c4cn(C5CCN(CCF)CC5)nn4)cc3c2)n1 [Compound 95, 1-(1-(2-fluoroethyl)piperidin-4-yl)-N-(6-(6-(isopropylamino)pyrazin-2-yl)isoquinolin-3-yl)-1H-1,2,3-triazole-4-carboxamide]	34 nM	6.96 µM	1060 nM	91 nM	–	211 nM	–	2 nM	–	–
CC(C)Nc1cncc(-c2ccc3cnc(NC(=O)c4cn(C5CCN(C(C)C)CC5)nn4)cc3c2)n1 [Compound 96, N-(6-(6-(Isopropylamino)pyrazin-2-yl)isoquinolin-3-yl)-1-(1-isopropylpiperidin-4-yl)-1H-1,2,3-triazole-4-carboxamide]	28 nM	3 µM	91 nM	152 nM	–	312 nM	–	1 nM	–	–
CC(C)Nc1cncc(-c2ccc3cnc(NC(=O)c4ccnc(N5CCN(C)CC5)c4)cc3c2)n1 [Compound 97, N-(6-(6-(Isopropylamino)pyrazin-2-yl)isoquinolin-3-yl)-2-(4-methylpiperazin-1-yl)isonicotinamide]	7 nM	6.27 µM	222 nM	311 nM	–	184 nM	–	2 nM	–	–
CN(C)C1CN(c2cc(C(=O)Nc3cc4cc(-c5cncc(NC(C)(C)C)n5)ccc4cn3)ccn2)C1 [Compound 98, N-(6-(6-(tert-Butylamino)pyrazin-2-yl)isoquinolin-3-yl)-2-(3-(dimethylamino)azetidin-1-yl)isonicotinamide]	24 nM	4.8 µM	31 nM	32 nM	–	87 nM	–	2 nM	–	–
CN1CC=C(c2cc(C(=O)Nc3cc4cc(-c5cncc(NC(C)(C)C)n5)ccc4cn3)ccn2)CC1 [Compound 99, N-(6-(6-(tert-Butylamino)pyrazin-2-yl)isoquinolin-3-yl)-1′-methyl-1′,2′,3′,6′-tetrahydro-[2,4′-bipyridine]-4-carboxamide]	18 nM	0.748 µM	43 nM	31 nM	–	125 nM	–	4 nM	–	–
CN1CCN(c2cc(C(=O)Nc3cc4cc(-c5cncc(NC(C)(C)C)n5)ccc4cn3)ccn2)CC1 [Compound 100, N-(6-(6-(tert-Butylamino)pyrazin-2-yl)isoquinolin-3-yl)-2-(4-methylpiperazin-1-yl)isonicotinamide]	51 nM	5.17 µM	111 nM	45 nM	–	223 nM	–	4 nM	–	–
CC(C)N1CCN(c2cc(C(=O)Nc3cc4cc(-c5cncc(NC(C)(C)C)n5)ccc4cn3)ccn2)CC1 [Compound 101, N-(6-(6-(tert-Butylamino)pyrazin-2-yl)isoquinolin-3-yl)-2-(4-isopropylpiperazin-1-yl)isonicotinamide]	42 nM	> 10 µM	61 nM	46 nM	–	260 nM	–	4 nM	–	–
